Like-named read-outs stand apart in the source and are kept apart here.
How the values were obtained:
anti-Chlamydia abzymes [1] = type: biochemical, human
Experimental: (§1) For chemical inactivation, a diluent solution was divided into two portions. In one portion, an abzyme inhibitor was added. The following abzyme inhibitors were used DMSO, 0.1-10%; sodium azide, 10^−5-10^−3M; catechins, 10^−6-10^−3M; ketek, […]; lactobacilli culture, 1 μM-1 mM; ascorbic acid, 10^−4-10^−3M; acetyl salicylic acid, 10^−4-10^−3M.
(§2) The serum sample was split in two aliquots and one aliquot was diluted by solution containing the abzyme inhibitor, the second aliquot was diluted by the control solution. The aliquots were then tested in the same fashion.
Lipid peroxidation was assessed as a level of MDA concentration which was measured by spectrophotometric method [Draper, H. H. et al Free Radic. Biol. Med. (1993) 15, 353]. This method is based on the formation of a coloured product when malondialdehyde reacts with thiobarbituric acid. Briefly, the level of abzymes in a sample was determined as follows: Samples of sera were diluted 1:1 by 0.05M acetate buffer pH 4.0 to make the final pH of these samples between 5.6-5.8. 990 μl of the diluted serum was mixed with 10 μl of the commercial live ovine Chlamydia vaccine (Intervet). Samples were incubated overnight (12-16 hours) at 37° C. 250 μl of 40% trichloroacetic acid and 250 μl of 1 mM 2-thiobarbituric acid was added to each sample. All samples were placed in a water bath and boiled for 30 minutes. Samples were cooled down and centrifuged at 3,000 g for 10 minutes. The supernatants were collected and their absorption measured at λ 525 nm to determine the concentration of malondialdehydes (MDA), which are products of lipid peroxidation.

anti-Chlamydia abzymes [2] = type: biochemical, human; remark: listed apart in the source
Experimental: as §1, §2
ELISA assays were performed using Medac materials and reagents, which were used in accordance with the manufacturers instructions.
Briefly, serum samples from patients were treated as described above. 50 μl of sample diluent was pipetted into microtitre well Al as blank, and 50 μl of the negative control, Positive Control and the diluted patients' samples were pipetted into other microtitre wells. The microplate wells were incubated for 60 min (±5 min) at 37° C. (±1° C.) in a humid chamber and then washed three times with 200 μl wash buffer per well. 50 μl of Conjugate was then added to each well and the microplate wells incubated again for 60 min (±5 min) at 37° C. (±1° C.) in a humid chamber and then washed. 50 μl of TMB-Substrate, was added to each well and the microplate wells incubated for 30 min (±2 min) at 37° C. (±1° C.) in a humid chamber. The reaction was stopped by adding 100 μl of Stop Solution, to each well.
Photometric reading was performed using a plate reader at 450 nm (ref. 620-650 nm) within 15 min after adding the Stop Solution.
To calculate the results, the OD value of the blank (well A1) was subtracted from all other OD values. […] Cut-off=mean OD value of the Negative Control+0.380. Grey zone=Cut-off±10%

[3] = patient serum, abzyme inhibitor added to diluent

Row | Molecule | Inhibition of abzymes ability to cause: Serum lipid peroxidation, in MDA assay (anti-Chlamydia abzymes [1]) | Inhibition of abzymes ability to cause: Damage of Chlamydia pneumoniae antigen, in ELISA (anti-Chlamydia abzymes [2]) | Inhibition of abzymes ability to cause: Serum lipid peroxidation, in MDA assay (anti-Chlamydia abzymes [1]; [3]) | Inhibition of abzymes ability to cause: Damage of Chlamydia pneumoniae antigen, in ELISA (anti-Chlamydia abzymes [2]; [3])
1 | Cc1c(O)cc2c(c1C)O[C@](C)(CCC[C@H](C)CCC[C@H](C)CCCC(C)C)CC2 [(+) y-Tocopherol] | Negative | Negative |  | 
2 | Cc1c(C)c2c(c(C)c1O)CC[C@@](C)(CCC[C@H](C)CCC[C@H](C)CCCC(C)C)O2 [(+) α-Tocopherol] |  |  | Negative | Negative
3 | CC(=O)Oc1ccccc1C(=O)O [Acetyl salicylic acid] | Positive | Positive |  | 
4 | O=C1O[C@H]([C@@H](O)CO)C(O)=C1O [Ascorbic acid] |  |  | Positive | Positive
5 | O=C(O)c1ccccc1 [Benzoic acid] | Negative | Negative |  | 
6 | OC[C@@H](O)[C@@H](O)[C@H](O)[C@H](O)CO [D-Mannitol] |  |  | Negative | Negative
7 | C[S+](C)[O-] [DMSO] |  |  | Positive | Positive
8 | O=C(O)CN(CCN(CC(=O)O)CC(=O)O)CC(=O)O [EDTA] | Positive | Positive |  | 
9 | O=C(O)CN(CCOCCOCCN(CC(=O)O)CC(=O)O)CC(=O)O [EGTA] |  |  |  | Positive
10 | CC(C)=CCC/C(C)=C/C=C/C(C)=C/C=C/C(C)=C/C=C/C=C(C)/C=C/C=C(C)/C=C/C=C(\C)CCC=C(C)C [Lycopene] |  |  | Negative | Negative
11 | CC[C@H]1OC(=O)[C@H](C)C(=O)[C@H](C)[C@@H](O[C@@H]2O[C@H](C)C[C@H](N(C)C)[C@H]2O)[C@](C)(OC)C[C@@H](C)C(=O)[C@H](C)[C@H]2N(CCCCn3cnc(-c4cccnc4)c3)C(=O)O[C@]12C [Telithromycin, Ketek, Telithromycin] |  |  | Positive | Positive
12 | CC1=C(/C=C/C(C)=C/C=C/C(C)=C/C=C/C=C(C)/C=C/C=C(C)/C=C/C2=C(C)CCCC2(C)C)C(C)(C)CCC1 [β-Carotene] | Negative | Negative |  | 
13 | (+) Catechin gallate |  |  | Positive | Positive
14 | Haemoglobin | Positive | Positive |  | 
15 | PMS | Negative | Negative |  | 
